US7348336B2 (Sanofi-Aventis Deutschland GmbH, priority 2000, dated 2008)
Counter-ions that a name gives are not always drawn. Like-named read-outs stand apart in the source and are kept apart here.

How the values were obtained:
IκBα-kinase complex = target: T1, IκBα-kinase complex (Homo sapiens, UniProt O14920+O15111); test: IkB-Kinase ELISA; assay type: biochemical;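 also: substrate phosphopeptide captured on Protein-A plates, detected with Streptavidin-HRP and TMB absorbance at 450 nm, activity read from a synthetic phosphopeptide standard curve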
T1 construct: endogenous in cells; host or cells: HeLa S3 cell extract, S100 fraction; ammonium sulfate precipitation and Superose-6 size exclusion
T1 sequence (O14920 whole entry): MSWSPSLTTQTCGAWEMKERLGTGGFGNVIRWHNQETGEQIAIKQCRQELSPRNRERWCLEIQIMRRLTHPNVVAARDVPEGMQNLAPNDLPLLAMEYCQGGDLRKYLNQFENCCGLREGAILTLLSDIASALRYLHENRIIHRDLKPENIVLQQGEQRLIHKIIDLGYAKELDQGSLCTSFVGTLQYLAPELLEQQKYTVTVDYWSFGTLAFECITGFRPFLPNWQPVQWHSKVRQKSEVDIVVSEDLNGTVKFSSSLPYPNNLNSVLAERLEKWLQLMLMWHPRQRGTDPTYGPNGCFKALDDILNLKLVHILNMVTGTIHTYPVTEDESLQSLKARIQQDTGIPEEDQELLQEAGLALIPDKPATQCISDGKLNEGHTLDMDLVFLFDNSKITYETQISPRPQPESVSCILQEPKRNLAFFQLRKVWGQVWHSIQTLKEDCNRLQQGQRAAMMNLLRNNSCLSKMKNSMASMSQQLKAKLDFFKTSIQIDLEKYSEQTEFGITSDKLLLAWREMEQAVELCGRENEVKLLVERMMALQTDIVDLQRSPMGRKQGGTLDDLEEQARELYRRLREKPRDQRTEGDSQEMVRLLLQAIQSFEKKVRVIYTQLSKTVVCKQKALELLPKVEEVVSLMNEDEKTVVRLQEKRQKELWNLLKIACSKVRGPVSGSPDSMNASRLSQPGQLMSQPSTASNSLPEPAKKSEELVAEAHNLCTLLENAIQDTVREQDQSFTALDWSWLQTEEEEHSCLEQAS
T1 sequence (O15111 whole entry): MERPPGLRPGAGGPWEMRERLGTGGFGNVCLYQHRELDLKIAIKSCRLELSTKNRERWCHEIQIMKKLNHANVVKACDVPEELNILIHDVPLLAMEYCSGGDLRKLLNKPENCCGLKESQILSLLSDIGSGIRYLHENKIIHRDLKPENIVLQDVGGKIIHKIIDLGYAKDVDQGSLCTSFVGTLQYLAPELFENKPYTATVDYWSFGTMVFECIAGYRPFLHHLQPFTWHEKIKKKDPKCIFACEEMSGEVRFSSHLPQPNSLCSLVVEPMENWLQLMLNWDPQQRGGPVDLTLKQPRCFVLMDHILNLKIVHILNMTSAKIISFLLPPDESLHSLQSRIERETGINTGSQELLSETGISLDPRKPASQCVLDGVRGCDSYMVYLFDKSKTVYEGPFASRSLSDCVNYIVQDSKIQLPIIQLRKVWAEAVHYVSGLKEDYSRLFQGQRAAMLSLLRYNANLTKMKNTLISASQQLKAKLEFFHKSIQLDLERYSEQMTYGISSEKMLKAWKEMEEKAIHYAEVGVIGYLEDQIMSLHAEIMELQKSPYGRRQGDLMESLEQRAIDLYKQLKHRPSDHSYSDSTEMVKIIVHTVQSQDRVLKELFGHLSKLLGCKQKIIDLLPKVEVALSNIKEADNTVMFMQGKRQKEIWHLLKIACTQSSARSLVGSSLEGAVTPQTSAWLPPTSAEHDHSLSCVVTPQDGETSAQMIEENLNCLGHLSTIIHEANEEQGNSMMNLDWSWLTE
T1 sequence (Q9Y6K9 whole entry partner): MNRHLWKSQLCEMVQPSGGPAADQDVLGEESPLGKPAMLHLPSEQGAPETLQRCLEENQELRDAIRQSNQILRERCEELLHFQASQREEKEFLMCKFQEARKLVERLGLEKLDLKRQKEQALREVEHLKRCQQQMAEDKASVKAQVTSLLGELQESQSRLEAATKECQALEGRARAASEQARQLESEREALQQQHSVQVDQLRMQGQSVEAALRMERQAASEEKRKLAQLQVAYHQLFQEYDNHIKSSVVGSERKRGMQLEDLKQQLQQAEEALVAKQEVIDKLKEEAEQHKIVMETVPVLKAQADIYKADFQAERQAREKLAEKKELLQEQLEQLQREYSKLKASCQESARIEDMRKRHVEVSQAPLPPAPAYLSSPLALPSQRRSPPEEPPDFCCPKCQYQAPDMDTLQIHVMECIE

[1] = tested on: cardiac allograft (BALB/c->C57BL/6 or B6/129); test: Mouse heterotopic cardiac transplant model; assay type: in vivo; conditions: oral, 25 mg/kg/day for 14 days, starting at transplantation; mean±SD
From the text: Mouse Heterotopic Cardiac Transplant Model
In the mouse heterotopic cardiac transplant model across full histocompatibility barriers (BALB/c->C57BL/6 or B6/129), graft survival is typically limited to 7.3±0.4 days (mean±SD, n0 allografts) (see for example in Hancock W W, Sayegh M H, Zheng X G, Peach R, Linsley P S, Turka L A. Costimulatory function and expression of CD40-ligand, CD80 and CD86 or in vascularized murine cardiac allograft rejection. Proc Natl Acad Sci (USA) 93, 1996, 13967-13972; and Hancock W W, Buelow R, Sayegh M H, Turka L A. Antibody-induced transplant arteriosclerosis is prevented by graft expression of anti-oxidant and anti-apoptotic genes. Nature Med 4, 1998, 1392-1396).
The effects of oral administration of the compounds according to examples 49 and 60 were tested using 25 mg/kg/day for 14 days, starting at transplantation in said animal model. Whereas grafts in animals receiving the carrier, methyl-cellulose, rejected by 7 days (6.7±0.8), grafts in compound 49-treated mice survived around 15 days (15.3±0.6), and grafts in those given compound 60 survived for 20 days (20±1). Current immunosuppressive therapies used in transplantation have limited efficacy and/or considerable toxicity.

[2] = activated IκBα kinase complex from HeLa S3 cell extracts, ELISA, read-out: IkB-kinase IC50

SMILES	IC50 (IκBα-kinase complex; [2]) [nM]	IC50 (IκBα-kinase complex; IkB-kinase, unit inferred, read-out: IC50) [nM]	graft survival [1] [days]
O=C(Nc1cc(Cl)cc2c1[nH]c1cnccc12)c1ccc(F)cc1 [Example 49, trifluoroacetate]	220		15.3 ± 0.6
COc1c(Cl)cc2c([nH]c3cnccc32)c1NC(=O)c1ccno1 [Example 119]	600		
COc1c(Cl)cc2c([nH]c3cnccc32)c1NC(=O)c1ccc(F)c(F)c1 [Example 120]	400		

Now from value to compound, other results behind:

IC50 (IκBα-kinase complex; [2]) [nM]	IC50 (IκBα-kinase complex; IkB-kinase, unit inferred, read-out: IC50) [nM]	SMILES	graft survival [1] [days]
120		COc1c(Cl)cc2c([nH]c3cnccc32)c1NC(=O)c1ccc(Cl)nc1 [Example 118]	
	1700	Nc1ccc(C(=O)Nc2cc(Cl)cc3c2[nH]c2cnccc23)cn1 [Example 121]	
